Results reported in a melting point compilation (Tetko et al.; mined from patent text by program, amines drawn as free bases though some values may be those of a salt).
Residues, ends and D or L forms follow the SMILES beside them. *: point of attachment. For = O=C*

melting point | Compound
194 to 195 °C | NS(=O)(=O)c1ccc(-c2cscc2-c2ccc(F)cc2)cc1
178 to 191 °C | c1nc(Nc2ccc3[nH]ccc3c2)c2sc(-c3ccc(CNCCN4CCNCC4)cc3)cc2n1
79 to 82 °C | COc1cccc([C@H](O)C[C@@H]2CCCN2C)c1 (relative stereo)
264 to 265 °C | CNC(=O)[C@H]1CN(c2cc(F)c3c(c2)CCC(=O)N3C)C(=O)O1
212 to 214 °C | COc1ccc2c(c1)Cc1c(-c3cccs3)n[nH]c1-2
202 to 204 °C | COc1cc(C(C)=O)ccc1OCCCN1CCC(c2n[nH]c3cc(F)ccc23)CC1
270 to 272 °C | CCOC(=O)c1cnn2c1c(=S)[nH]c1ccccc12
116 to 118 °C | CCc1nc2c(cnn2CC)c(NC2CCOCC2)c1CNC(=O)c1cccc(C(=O)NCc2cc(Cl)cc(-c3cccc(CN4CCN(C)CC4)c3)c2)c1
159 to 160 °C | CCn1ncc(C(=O)c2ccc(S(C)(=O)=O)c(OCCOC)c2Cl)c1O
147 to 148 °C | CCOC(=O)C1=C(C)NC(CO)=C(C(=O)OCC)C1c1ccccc1C(F)(F)F (stereo unspecified)
> 200 °C | CSc1nc(N)c(C#N)c(N2CCc3ccccc3CC2)n1
120 to 121 °C | CC(C)(C)c1ccc2c(c1)Cc1cc(C(C)(C)C)ccc1-2
201 to 204 °C | Cc1cccc(-c2cn(C)cc(-c3ccc(Br)cc3)c2=O)c1
88 to 89 °C | CCOC(=O)CN=c1sc2ccccc2s1
140 to 141 °C | CCOC(=O)C(=O)Nc1ccc(NC(=O)C(=O)OCC)c(C#N)c1
134 to 135 °C | CSC(=Nc1c(C)nn(C)c1C)Nc1cc(Cl)ccc1C
122 to 124 °C | CCC1(CCCN2CCN(c3ccccn3)CC2)C(=O)Nc2ccccc21 (stereo unspecified)
162 °C | CCOC(=O)CCNC(=O)N1CCc2cc(S(=O)(=O)N3CCN(c4cccc(Cl)c4)CC3)ccc21
140 to 144 °C | O=C(O)CCNC(=O)C=Cc1ccccc1
125 to 127 °C | CCCCOc1ccc2cc(C(C)C(=O)O)ccc2c1 (stereo unspecified)
68 to 70 °C | CCOC(=O)CSc1nc(Cl)cc(NCCc2ccc(Cl)cc2)n1
118 to 120 °C | O=C(CON1C(=O)c2ccccc2C1=O)NOCc1ccccc1
101 to 103 °C | O=c1ccc(C(F)(F)F)cn1Cc1ccccc1NCCN1CCOCC1

melting point | Compound
125 °C | O=c1ncc(Cl)cn1COCc1ccccc1
240 to 242 °C | Cc1ccc2sc(S(=O)(=O)c3cn[nH]c(=O)c3)cc2c1
130 to 131 °C | CCOc1ccc(S(=O)(=O)N2CCN(C)CC2)cc1C#N
108 to 109 °C | O=C(O)C1CC(=O)N(c2cc(C(F)(F)F)cc(C(F)(F)F)c2)C1 (stereo unspecified)
87 °C | CCN(CC)c1ccc(Nc2ccnc(Nc3cc(OC)c(OC)c(OC)c3)n2)cc1
116 to 118 °C | CSC1=Nc2ccccc2Sc2nccn21
67 to 69 °C | COC[C@H](Cc1ccccc1)Nc1nc(C)nc2c1nnn2-c1ccc(C(C)C)cc1Br
104 to 106 °C | O=C1c2cc(Br)ccc2COc2ccccc21
250 to 254 °C | c1cn(Cc2ccc3c(c2)Cc2c(-c4ccsc4)n[nH]c2-3)nn1
118 to 120 °C | CC(C)N1CCC(CNc2ccc(Cl)cc2C(=O)Nc2ccccn2)CC1
156 to 157 °C | COC(=O)c1cc(C(=O)NN)c2cc(Cc3ccc(F)cc3)cnc2c1O
90 to 92 °C | COC(C)(C)O[C@@H]1C(=O)N(C(=O)OC(C)(C)C)[C@@H]1c1ccccc1 (relative stereo)
94 to 130 °C | CC(=O)OCCCOc1ccc([N+](=O)[O-])c(C=C2NC(=O)NC2=O)c1
124 °C | COC(=O)C(Cc1ccccc1)NC(=O)C(CC(=O)O)NC=O (stereo not drawn) (For-Asp-Phe-OMe; configuration not given here)
157 to 159 °C | C/C(=N\OCCOc1ccc(C(=O)O)c(O)c1)c1ccc(C(C)(C)C)cc1
282 to 284 °C | CS(=O)(=O)c1nc2c([nH]1)N(Cc1ccc(Cl)cc1)C1NCCN1C2=O (stereo unspecified)
167 to 168 °C | CC1CC2(C)C(CCC3C4CCC(C5(C)OCCO5)C4(C)CC(=O)C32)CC1O (stereo unspecified)
150 to 152 °C | O=Cc1c(Cl)nc(-c2ccccc2)n1Cc1ccc([N+](=O)[O-])cc1
222 to 225 °C | CC(C)(C)OC(=O)N1CCCC(c2nc3c(N[C@H]4[C@@H](C(N)=O)[C@@H]5C=C[C@H]4C5)ccnc3[nH]2)C1 (stereo partly specified)
120 to 121 °C | CCC1(C)OC(c2ccc(S(N)(=O)=O)cc2)=C(c2ccsc2)C1=O (stereo unspecified)
238 to 240 °C | Cc1ccc(-c2c3c(cc4ccc(O)cc24)-c2ccc(O)cc2CO3)cc1
226 °C | O=C(N[C@H]1CC[C@H](CCN2CCN(c3nccc4c3CCO4)CC2)CC1)c1ccc(Cl)cc1
166 °C | O=S(=O)(c1ccc2ccccc2c1)N1CCCC1c1ccc(F)cc1 (racemic)

melting point | Compound
68 to 70 °C | CCCCCCCCCCCCc1nnn[nH]1
78 to 79 °C | CC(=O)SCC1(C)C(=O)N2CCCC(C(=O)OC(C)(C)C)N2C1=O (stereo unspecified)
152 to 155 °C | COc1cc(Nc2nc(O)c3c(n2)C(c2ccccc2)CN(C)C3)ccc1-n1cnc(C)c1 (stereo unspecified)
129 to 132 °C | COc1ccccc1Oc1c(NS(=O)(=O)c2ccc(C(C)(C)C)cc2)nc(NCCN(C)C)nc1OCCOc1ncc(Br)cn1
254 to 256 °C | CS(=O)(=O)N1CCN(c2ccc(NC(=O)c3ccccc3-c3ccc(C(F)(F)F)cc3)cc2)CC1
98 to 100 °C | COC(C)c1ccc(OCCCN2CCC(c3noc4cc(F)ccc34)CC2)c(O)c1 (stereo unspecified)
133 to 137 °C | CCCCCCCCCCCCCCCCCCOC(=O)c1cc(C(=O)OCCCCCCCCCCCCCCCCCC)c(C(=O)O)cc1C(=O)O
155 to 157 °C | COc1ccc(N2CCN(C3CCN(CC(O)COc4cccc5[nH]c(C)cc45)CC3)C2=O)cc1 (stereo unspecified)
185 to 188 °C | N#Cc1cc(N)c(F)c(-c2ccc(Cl)cc2)n1
173 to 175 °C | COc1cc2c(cc1OC)[C@@H]1CN(C)CC[C@@H]1N=C2c1ccc(NC(C)=O)cc1 (relative stereo)
95 to 97 °C | Cc1ccc2onc(O)c2c1
70 to 75 °C | COc1ccc(C=CC(=O)CCCCc2ccccc2)cc1O
240 °C | C=CCOc1ccccc1NC=C1C(=O)N(c2ccc(C(=O)O)cc2)N=C1C
141 to 143 °C | COC(Cc1ccc(OCCc2nc(C(C)(C)C)oc2C)c2ccccc12)C(=O)O (stereo unspecified)
175 to 177 °C | COc1ccc(C2=NN(C3CCOCC3)C(=O)[C@H]3CC=CC[C@@H]23)cc1OC (relative stereo)
64 °C | CCN(CC)CCOc1ccc(C#CC(C)(C)O)cc1
112 to 114 °C | CCOC(=O)Cc1c(C(F)(F)F)c2ccc(O)cc2oc1=O
98 °C | COc1cccc(C2C=C(C)NC(CN3C(=O)c4ccccc4C3=O)=C2)c1[N+](=O)[O-] (stereo unspecified)
202 to 203 °C | COc1ccc(C(=O)Nc2ccccc2)cc1Nc1cccc(NC(C)=O)c1
108 to 109 °C | CCOC(=O)[C@H](Cc1ccc(OC)c(OC)c1)NC(=O)c1ccnc(Br)c1
184 to 186 °C | CNC(=O)C(C#N)C(=O)Nc1ccc(C(F)(F)F)cc1 (stereo unspecified)
153 °C | Cc1nc(NC(=O)C(c2ccccc2)c2ccccc2)no1
109 to 110 °C | CCOC(=O)Cn1c(=S)c2ccccc2n(Cc2ccc(Br)cc2F)c1=O

melting point | Compound
166 °C | CCOC(=O)N1CCN(C2=Nc3ccccc3Nc3ccsc32)CC1
96 to 98.5 °C | CC(C)(C)C1(O)CCN(CC2c3ccccc3CCc3ccccc32)CC1
110 to 111 °C | COc1ccccc1C(OC)c1cccnn1 (stereo unspecified)
137 °C | CCOC(=O)c1ccc2nc(N[C@@H]3CCc4ccccc43)ccc2c1
230 to 231 °C | COc1ccc(C(=O)Nc2ccc(C(=O)O)cc2)cc1C1(C)CCCCC1
266 to 267 °C | Cc1nc(-c2c(Cl)cc(C(F)(F)F)cc2Cl)[nH]c1S(N)(=O)=O
83 to 86 °C | CCOC(=O)/C=C(C)/C=C/C1=C(c2ccc3c(c2)C(C)(C)CCC3(C)C)CCC1
149 °C | CC(c1ccc(Cl)cc1)N1Cc2sc3ncn(CCN4CCN(c5cccc6ccccc56)CC4)c(=O)c3c2C1 (stereo unspecified)
180 to 181 °C | CC1CCN(CCCC(=O)c2ccc3c(c2)Cc2cc(C(=O)CCCN4CCC(C)CC4)ccc2-3)CC1
153 to 155 °C | CN(C)C1CCCC(C(=O)N2CCC(c3[nH]nc4c3C(=O)c3c(NC(=O)NN5CCOCC5)cccc3-4)CC2)C1 (stereo unspecified)
297 to 307 °C | O=C(Nc1ccc(C(F)(F)F)cc1)Nc1ccc2c(c1)COC2=O
154 to 155 °C | COCC(=O)Nc1cc(C(=O)OC)c(O)c2ncc(Cc3ccc(F)cc3)cc12
155 to 157 °C | CN(Cc1ncco1)C1CCCN(C(=O)c2ccc(Nc3nccc(Nc4ccc(F)cc4)n3)cc2)C1 (stereo unspecified)
75 to 80 °C | CC(C)C(=O)NC[C@H]1CN(c2ccc3c(c2)CCCc2cnn(C(=O)C(C)C)c2-3)C(=O)O1
114 to 120 °C | O=C(CNC(=O)c1ccccc1)c1ccccc1
144 to 148 °C | C=C(C)COc1ccc(OC)cc1-c1nc2ccccc2[nH]1
125 to 126 °C | CC(=O)NC(Cc1ccccc1)C(O)C(Cc1ccccc1)NC(C)=O (stereo unspecified)
105 °C | CCSc1cc(O)c(C#N)s1
206 to 208 °C | CCCC12CCC(=O)C=C1c1c(cc(CC(=O)O)c(Cl)c1Cl)C2 (stereo unspecified)
108 °C | O=S(=O)(c1ccc(F)cc1)N1CCCC1c1ccccc1F (racemic)
148 °C | CCOC(=O)Cc1sc(C(C)(C)c2c(Cl)cc(-n3ncc(=O)[nH]c3=O)cc2Cl)nc1-c1ccccc1
279 °C | CNN(NC)C(=O)Nc1cccc2c1C(=O)c1c-2n[nH]c1-c1cccs1

Compound | melting point
CC(NCC(O)c1cc(Cl)c(N)c(Cl)c1)C1CCCCC1 (stereo unspecified) | 106 to 108 °C
CCCCCCC(C)(C)c1ccc([C@@H]2CC(=O)C[C@@H](O)C2)c(OCc2ccccc2)c1 (relative stereo) | 95 °C
CN1Cc2c(NC(=O)OCc3ccccc3)ncn2-c2ccccc2C1=O | 246 to 247 °C
CCS(=O)(=O)c1ccc2c(c1)nc(CC(C)(C)C)n2CC1(O)CCCC1 | 172 °C
OCc1ccc(-c2coc(-c3cn([C@H]4CN5CCC4CC5)nn3)c2)cc1 | 202 °C
